Source: US12479827B2, “Heteroaromatic carboxamide derivatives as plasma kallikrein inhibitors” (Boehringer Ingelheim International GmbH, priority 2020, dated 2025)

Key:
[1] = target: T1, PKK in kaolin activated human platelet poor plasma (Homo sapiens, UniProt P03952); experiment: Inhibition of PKK in kaolin activated human PPP; assay type: biochemical; conditions: 25-750 μg/mL kaolin, global fit, text b200 calls the values IC90;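 further: readout is the rate of fluorogenic substrate cleavage in rfu per min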
T1 construct: Platelet poor plasma (PPP) obtained from human wholeblood; from tissue
T1 sequence (P03952 391-638 limits assumed): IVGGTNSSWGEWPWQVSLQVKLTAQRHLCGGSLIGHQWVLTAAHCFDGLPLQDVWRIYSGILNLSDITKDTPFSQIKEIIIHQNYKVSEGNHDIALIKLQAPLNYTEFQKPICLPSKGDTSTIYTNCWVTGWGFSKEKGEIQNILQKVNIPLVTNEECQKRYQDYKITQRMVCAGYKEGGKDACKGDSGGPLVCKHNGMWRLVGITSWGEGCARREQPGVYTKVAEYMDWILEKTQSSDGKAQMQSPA
T1 sequence (P03952 20-390 limits assumed): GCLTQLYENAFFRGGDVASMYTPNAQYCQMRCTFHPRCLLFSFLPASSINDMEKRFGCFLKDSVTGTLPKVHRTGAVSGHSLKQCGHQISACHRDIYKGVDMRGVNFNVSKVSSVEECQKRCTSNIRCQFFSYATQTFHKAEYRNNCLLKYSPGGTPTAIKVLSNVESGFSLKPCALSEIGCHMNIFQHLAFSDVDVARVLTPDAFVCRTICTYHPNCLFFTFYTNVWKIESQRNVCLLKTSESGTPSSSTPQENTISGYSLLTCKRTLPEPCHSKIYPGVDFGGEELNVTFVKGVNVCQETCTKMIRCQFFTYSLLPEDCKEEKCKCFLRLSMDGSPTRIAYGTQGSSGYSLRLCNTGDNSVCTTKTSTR
Method: Platelet poor plasma (PPP) obtained from human wholeblood, anticoagulated with Na-Citrate, is incubated with various concentrations of the test compound together with either 25, 75, 250, or 750 μg/mL kaolin in assay buffer for 20 min at 37° C. such that for each kaolin dose used a concentration response is obtained for the test compound.

Human PKK = target: T2, Human PKK (Homo sapiens, UniProt P03952); experiment: Inhibition of PKK using an endpoint assay (human PKK); assay type: biochemical; conditions: fluorogenic substrate H-Pro-Phe-Arg-AMC, 1 h room temperature, method names human or rat PKK, table does not say which
T2 construct: purchased Enzyme Research Laboratories
T2 sequence (P03952 20-390 limits assumed): as above
T2 sequence (P03952 391-638 limits assumed): as the sequence (P03952 391-638 limits assumed) above
Method: The ability of compounds of formula (I) to inhibit plasma kallikrein (PKK), Factor XIIa (FXIIa), Factor XIa (FXIa), Factor Xa (FXa), Factor IIa (alpha-thrombin; FIIa), plasmin, trypsin, tissue kallikrein 1 (TK1), Factor VIIa (FVIIa), or FVIIa complexed with Tissue Factor, phospholipids and CaCl2 (FVIIa/TF/PL/CaCl2) is determined using the following biochemical assays in assay buffer (100 mM Tris, 150 mM NaCL, adjusted to a pH of 7.8 with HCl, and containing 0.1% (w/v) BSA and 0.05% (v/v) Tween20) in the presence of 1% (v/v) DMSO:
Subsequently, PPACK II (Calbiochem) is added as a stop solution to achieve a final concentration of 1 μM and fluorescence is measured using an Envision Reader (PerkinElmer) with the wavelength excitation setting of 355 nm and the wavelength emission setting of 460 nm.

| Compound | IC50 [1] | IC50 (Human PKK) |
| --- | --- | --- |
| Cc1nc(N2CC3CC3C2)ccc1Cc1cc(C(=O)N[C@@H]2CCc3c2ncn3C)n(C)n1 (stereo partly drawn) [Example 168, 3-[(6-{3-Azabicyclo[3.1.0]hexan-3-yl}-2-methylpyridin-3-yl)methyl]-1-methyl-N-[(4R)-1-methyl-1H,4H,5H,6H-cyclopenta[d]imidazol-4-yl]-1H-pyrazole-5-carboxamide] | 1860 nM | 1.5 nM |
| Cn1cnc2c1CC[C@H]2NC(=O)c1cn(Cc2ccc(N3CC4CC4C3)nc2F)nn1 (stereo partly drawn) [Example 17, 1-[(6-{3-Azabicyclo[3.1.0]hexan-3-yl}-2-fluoropyridin-3-yl)methyl]-N-[(4R)-1-methyl-1H,4H,5H,6H-cyclo-penta[d]imidazol-4-yl]-1H-1,2,3-triazole-4-carboxamide] | 818 nM | 2 nM |
| Cn1cnc2c1CC[C@H]2NC(=O)c1cn(Cc2ccc(N3CC4(CC4)C3)nc2Cl)cn1 [Example 21, 1-[(6-{5-Azaspiro[2.3]hexan-5-yl}-2-chloropyridin-3-yl)methyl]-N-[(4R)-1-methyl-1H,4H,5H,6H-cyclopenta[d]imidazol-4-yl]-1H-imidazole-4-carboxamide] | 325 nM | 0.9 nM |
| Cn1cnc2c1CC[C@H]2NC(=O)c1cnn(Cc2ccc(N3CC4CC4C3)nc2Br)c1 (stereo partly drawn) [Example 40, 1-[(6-{3-Azabicyclo[3.1.0]hexan-3-yl}-2-bromopyridin-3-yl)methyl]-N-[(4R)-1-methyl-1H,4H,5H,6H-cyclopenta[d]imidazol-4-yl]-1H-pyrazole-4-carboxamide] | 543 nM | 1.2 nM |
| Cc1nc(N2CC3CC3C2)ncc1Cn1cc(C(=O)N[C@@H]2CCc3c2ncn3C)c2cncnc21 (stereo partly drawn) [Example 174, 7-[(2-{3-Azabicyclo[3.1.0]hexan-3-yl}-4-methylpyrimidin-5-yl)methyl]-N-[(4R)-1-methyl-1H,4H,5H,6H-cyclopenta[d]imidazol-4-yl]-7H-pyrrolo[2,3-d]pyrimidine-5-carboxamide] | 1430 nM | 1.9 nM |
| Cn1cnc2c1CC[C@H]2NC(=O)c1cnn(Cc2cc(C#N)c(N3CC4CC4C3)c(C#N)c2)c1 (stereo partly drawn) [Example 197, 1-[(4-{3-azabicyclo[3.1.0]hexan-3-yl}-3,5-dicyanophenyl)methyl]-N-[(4R)-1-methyl-1H,4H,5H,6H-cyclopenta[d]imidazol-4-yl]-1H-pyrazole-4-carboxamide] | – | 13.4 nM |
| Cn1cnc2c1CC[C@H]2NC(=O)c1cnn(Cc2ccc(N3CC4CC4C3)nn2)c1 (stereo partly drawn) [Example 60, 1-[(6-{3-Azabicyclo[3.1.0]hexan-3-yl}pyridazin-3-yl)methyl]-N-[(4R)-1-methyl-1H,4H,5H,6H-cyclopenta[d]imidazol-4-yl]-1H-pyrazole-4-carboxamide] | – | 18.8 nM |
| Cn1cnc2c1CC[C@H]2NC(=O)c1cn(Cc2ccc(N3CC4(CC4)C3)nc2CO)nn1 [Example 61, 1-[(6-{5-Azaspiro[2.3]hexan-5-yl}-2-(hydroxymethyl)-pyridin-3-yl)methyl]-N-[(4R)-1-methyl-1H,4H,5H,6H-cyclo-penta[d]imidazol-4-yl]-1H-1,2,3-triazole-4-carboxamide] | – | 3.1 nM |
| CC(CO)c1nc(N2CC3CC3C2)ccc1Cn1cc(C(=O)N[C@@H]2CCc3c2ncn3C)cn1 (stereo partly drawn) [Example 59, 1-[(6-{3-Azabicyclo[3.1.0]hexan-3-yl}-2-(1-hydroxypropan-2-yl)pyridin-3-yl)methyl]-N-[(4R)-1-methyl-1H,4H,5H,6H-cyclopenta[d]imidazol-4-yl]-1H-pyrazole-4-carboxamide] | – | 0.4 nM |
| Cn1cnc2c1CC[C@H]2NC(=O)c1cc(Cc2ccc(N3CC4(CC4)C3)nc2Cl)no1 [Example 157, 3-[(6-{5-Azaspiro[2.3]hexan-5-yl}-2-chloropyridin-3-yl)methyl]-N-[(4R)-1-methyl-1H,4H,5H,6H-cyclopenta[d]imidazol-4-yl]-1,2-oxazole-5-carboxamide] | – | 1.2 nM |

Second part, the molecule after the results:

| IC50 [1] | IC50 (Human PKK) | Compound |
| --- | --- | --- |
| 432 nM | 1.5 nM | Cn1cnc2c1CC[C@H]2NC(=O)c1cnn(Cc2ccc(N3CC4C(C3)C4(F)F)cc2Br)c1 (stereo partly drawn) [Example 209, 1-[(2-bromo-4-{6,6-difluoro-3-azabicyclo-[3.1.0]hexan-3-yl}phenyl)methyl]-N-[(4R)-1-methyl-1H,4H,5H,6H-cyclopenta[d]imidazol-4-yl]-1H-pyrazole-4-carboxamide] |
| > 10000 nM | 1.2 nM | Cc1nc(N2CC3CC3C2)ccc1Cn1cc(C(=O)N[C@@H]2CCc3c2ncn3C)c(CCO)n1 (stereo partly drawn) [Example 216, 1-[(6-{3-Azabicyclo[3.1.0]hexan-3-yl}-2-methylpyridin-3-yl)methyl]-3-(2-hydroxyethyl)-N-[(4R)-1-methyl-1H,4H,5H,6H-cyclopenta[d]imidazol-4-yl]-1H-pyrazole-4-carboxamide] |
| – | 45.3 nM | Cc1nc(N2CCC3CC3C2)ncc1Cn1cc(C(=O)N[C@@H]2CCc3c2ncn3C)cn1 (stereo partly drawn) [Example 227, 1-[(2-{3-Azabicyclo[4.1.0]heptan-3-yl]-4-methylpyrimidin-5-yl)methyl]-N-[(4R)-1-methyl-1H,4H,5H,6H-cyclopenta[d]imidazol-4-yl]-1H-pyrazole-4-carboxamide] |
| – | 302 nM | Cc1nc(N2C[C@@H]3[C@H](C#N)[C@@H]3C2)ncc1Cn1cc(C(=O)N[C@@H]2CCc3c2ncn3C)cn1 [Example 224, 1-({2-[(1R,5S,6S)-6-Cyano-3-azabicyclo[3.1.0]Lhexan-3-yl]-4-methylpyrimidin-5-yl}methyl)-N-[(4R)-1-methyl-1H,4H,5H,6H-cyclopenta[d]imidazol-4-yl]-1H-pyrazole-4-carboxamide] |
| – | 8.6 nM | Cc1cc(N2CC3CC3C2)c(C#N)cc1Cn1cc(C(=O)N[C@@H]2CCc3c2ncn3C)cn1 (stereo partly drawn) [Example 200, 1-[(4-{3-azabicyclo[3.1.0]hexan-3-yl}-5-cyano-2-methylphenyl)methyl]-N-[(4R)-1-methyl-1H,4H,5H,6H-cyclopenta[d]imidazol-4-yl]-1H-pyrazole-4-carboxamide] |
| – | 232 nM | Cc1nc(N2C[C@@]3(C)C[C@@]3(C)C2)ncc1Cn1cc(C(=O)N[C@@H]2CCc3c2ncn3C)cn1 [Example 225, 1-({2-[(1R,5S)-1,5-Dimethyl-3-azabicyclo[3.1.0]hexan-3-yl]-4-methylpyrimidin-5-yl}methyl)-N-[(4R)-1-methyl-1H,4H,5H,6H-cyclopenta[d]imidazol-4-yl]-1H-pyrazole-4-carboxamide] |
| – | 110 nM | Cc1nc(N2C[C@@H]3[C@@H](C)[C@@H]3C2)ncc1Cn1cc(C(=O)N[C@@H]2CCc3c2ncn3C)cn1 [Example 229, N-[(4R)-1-Methyl-1H,4H,5H,6H-cyclopenta[d]imidazol-4-yl]-1-({4-methyl-2-[(1R,5S,6R)-6-methyl-3-azabicyclo[3.1.0]hexan-3-yl]pyrimidin-5-yl}methyl)-1H-pyrazole-4-carboxamide] |
| – | 222 nM | Cc1nc(N2C[C@@H]3[C@@H](O)[C@@H]3C2)ncc1Cn1cc(C(=O)N[C@@H]2CCc3c2ncn3C)cn1 [Example 236, 1-({2-[(1R,5S,6S)-6-Hydroxy-3-azabicyclo[3.1.0]hexan-3-yl]-4-methylpyrimidin-5-yl}methyl)-N-[(4R)-1-methyl-1H,4H,5H,6H-cyclopenta[d]imidazol-4-yl]-1H-pyrazole-4-carboxamide] |
| – | 214 nM | Cc1nc(N2C[C@@H]3[C@@H](CO)[C@@H]3C2)ncc1Cn1cc(C(=O)N[C@@H]2CCc3c2ncn3C)cn1 [Example 235, 1-({2-[(1R,5S,6S)-6-(Hydroxymethyl)-3-azabicyclo[3.1.0]hexan-3-yl]-4-methylpyrimidin-5-yl}methyl)-N-[(4R)-1-methyl-1H,4H,5H,6H-cyclopenta[d]imidazol-4-yl]-1H-pyrazole-4-carboxamide] |
| – | 123 nM | Cc1nc(N2CC3CCC3C2)ncc1Cn1cc(C(=O)N[C@@H]2CCc3c2ncn3C)cn1 (stereo partly drawn) [Example 238, 1-[(2-{3-Azabicyclo[3.2.0]heptan-3-yl}-4-methylpyrimidin-5-yl)methyl]-N-[(4R)-1-methyl-1H,4H,5H,6H-cyclopenta[d]imidazol-4-yl]-1H-pyrazole-4-carboxamide] |
| – | 35.7 nM | Cc1nc(N2CC3(CCC3)C2)ncc1Cn1cc(C(=O)N[C@@H]2CCc3c2ncn3C)cn1 [Example 226, 1-[(2-{2-Azaspiro[3.3]heptan-2-yl}-4-methylpyrimidin-5-yl)methyl]-N-[(4R)-1-methyl-1H,4H,5H,6H-cyclopenta[d]imidazol-4-yl]-1H-pyrazole-4-carboxamide] |
| – | 52 nM | Cc1nc(N2CCC3(CCC3)C2)ncc1Cn1cc(C(=O)N[C@@H]2CCc3c2ncn3C)cn1 [Example 240, 1-[(2-{6-Azaspiro[3.4]octan-6-yl}-4-methylpyrimidin-5-yl)methyl]-N-[(4R)-1-methyl-1H,4H,5H,6H-cyclopenta[d]imidazol-4-yl]-1H-pyrazole-4-carboxamide] |
| – | 2.8 nM | COc1nc(N2CC3C(C2)C3(F)F)ccc1Cn1cc(C(=O)N[C@@H]2CCc3c2ncn3C)cn1 (stereo partly drawn) [Example 221, 1-[(6-{6,6-Difluoro-3-azabicyclo[3.1.0]hexan-3-yl}-2-methoxypyridin-3-yl)methyl]-N-[(4R)-1-methyl-1H,4H,5H,6H-cyclopenta[d]imidazol-4-yl]-1H-pyrazole-4-carboxamide] |
